# Patent US9982256B2, “Random RNAi libraries, methods of generating same, and screening methods utilizing same” (The Trustees of the University of Pennsylvania, priority 2006, dated 2018)
# Key:
# FL5.12 cells [1] = assay: Growth rate of book-infected FL5.12 cells; format: cell-based, murine
# Protocol: (§1) 10 shRNA-encoding sequences (“books”) were retrieved by PCR, cloned back into pSiren, and sequenced. Of the 10, two were the same (books 1 and 7), indicating selective enrichment. FL5.12 cells were infected with 3 of the putative shRNA molecules separately (books 1, 3, and 8), each one assayed in 6 independent infections. The cells were subjected to 1 round of IL-3 withdrawal and recovery and subjected to a second withdrawal from IL-3. After 15 hours, cells were analyzed by flow cytometry, identifying infected cells by GFP fluorescence and dead cells by propidium iodide (PI) staining. Fractions of GFP-positive (infected), PI-negative (live) cells relative to the start of the experiment (just prior to the first IL-3 withdrawal) are depicted in FIG. 16. […] The improved survival with books 1 and 3 correlated with a decrease in caspase 3 enzymatic activity. Because the cycling of IL-3 withdrawal included a recovery segment, books 1 and 3 were tested for effects on growth rate and none were seen. The stem sequences of books 1 and 3 are as follows: […]
# FL5.12 cells [2] = assay: Survival of shRNA-infected FL5.12 cells after IL-3 withdrawal (flow cytometry, GFP/PI); format: cell-based, murine; details: 15 hours into second IL-3 withdrawal, after 1 round of withdrawal and recovery; 6 independent infections; p<0.0001, Student's t-test
# Protocol: High-titer retrovirus was generated by co-transfecting 293T cells with retroviral vector and pCL-Eco, which encodes both ecotropic envelope and gag-pol proteins, using an Effectene® transfection kit (Qiagen). Culture supernatant was harvested each day from 24-72 hours after transfection and used either to infect FL5.12 cells or frozen at ^−80° C. for future use. 1-2 million cells were seeded in each well of a 24-well plate and were centrifuged at 2500×g for 1 hour with viral supernatant, 5 μg/ml polybrene, and 0.3 ng/ml interleukin-3 (IL-3). Cells were stored in the incubator for 2 hours. Viral supernatant was replaced with fresh batches, and the spin/incubation process was repeated 2 more times. Infection efficiency was determined 24-48 hours later by flow cytometric analysis of GFP expression.
# The murine pro-B cell line FL5.12 is IL-3 dependent; 100% of the cells die by apoptosis after IL-3 withdrawal for 3 days, and >90% of cells can be rescued by expression of Bcl-xL59. […]
# 10 shRNA-encoding sequences (“books”) were retrieved by PCR, cloned back into pSiren, and sequenced. […] After 15 hours, cells were analyzed by flow cytometry, identifying infected cells by GFP fluorescence and dead cells by propidium iodide (PI) staining. […]
# caspase 3 = assay: Caspase 3 enzymatic activity in book-infected FL5.12 cells; format: cell-based, murine; details: correlated with the improved survival after IL-3 withdrawal
# Protocol: as §1
# primary FRDA fibroblasts [3] = assay: Glutathione depletion with BSO: viability of primary FRDA fibroblasts; format: cell-based; details: 1 mM BSO in media with 0.3 mg/ml fully saturated human transferrin; 48 hours; 6-well plate
# Protocol: (§2) Primary FRDA fibroblasts are far more sensitive to oxidative stress than normal control fibroblasts. (Jauslin et al. (Hum Molec Gen 11: 3055, 2002) used L-buthionine (S,R)-sulfoximine (BSO) to block the rate-limiting enzyme in glutathione synthesis, and found a concentration (0.05 mM) at which virtually all primary FRDA fibroblasts lose viability, but more than 90% of normal control fibroblasts retain viability.)
# (§3) […] […] By washing the cells, adding back their normal medium, and looking for colony formation, the minimum conditions under which 100% of the cells die were confirmed.
# [4] = system: normal control fibroblasts; assay: Glutathione depletion with BSO: viability of normal control fibroblasts; format: cell-based; details: 1 mM BSO in media with 0.3 mg/ml fully saturated human transferrin; 48 hours
# Protocol: as §2, §3
# [5] = system: normal control fibroblasts; details: 0.05 mM BSO; Jauslin et al. 2002; cited from earlier work
# primary FRDA fibroblasts [6] = details: 0.05 mM BSO; Jauslin et al. 2002; cited from earlier work
# 293T cells = assay: Overnight CDDO treatment of 293T cells, to establish an apoptosis assay; format: cell-based, human; details: for adherent cells remaining after treatment: then medium without CDDO
# Protocol: 293T cells (a human, embryonic kidney cell line) were treated overnight (16 hours) with 2, 4, 6, and 8 μM of the synthetic triterpenoid, CDDO.
compound,measurement,setting,value
"5′-GGGTAGCTACATTTGCATATGTGGATATG-3′ (listed as DNA, chemistry not given here) [Book 1, books 1 and 7 were the same]",effects on growth rate,FL5.12 cells [1],none
same,"survival (GFP-positive, PI-negative cells) relative to random book (ctr153) or vector alone (pSiren)",FL5.12 cells [2],statistically significant improvement in survival
same,caspase 3 enzymatic activity,caspase 3,decrease
"5′-GTGGATCAGTGTGTTATAGCTCGGGCAGG-3′ (listed as DNA, chemistry not given here) [Book 3]",effects on growth rate,FL5.12 cells [1],none
same,"survival (GFP-positive, PI-negative cells) relative to random book (ctr153) or vector alone (pSiren)",FL5.12 cells [2],statistically significant improvement in survival
same,caspase 3 enzymatic activity,caspase 3,decrease
"CCCCS(=N)(=O)CCC(N)C(=O)O [BSO, L-buthionine (S,R)-sulfoximine]",viability of FRDA cells,primary FRDA fibroblasts [3],all the cells in a 6-well plate nonviable
same,age- and passage-matched controls remaining viable,[4],majority
same,normal control fibroblasts retaining viability,[5],more than 90%
same,primary FRDA fibroblasts losing viability,primary FRDA fibroblasts [6],virtually all
CC1(C)CC[C@]2(C(=O)O)CC[C@]3(C)[C@H](C(=O)C=C4[C@@]5(C)C=C(C#N)C(=O)C(C)(C)[C@@H]5CC[C@]43C)[C@@H]2C1 [CDDO],adherent cells remaining after treatment,293T cells; 2 μM CDDO overnight (16 hours),some adherent cells
same,adherent cells remaining after treatment,293T cells; 4 μM CDDO overnight (16 hours),no remaining adherent cells
same,adherent cells remaining after treatment,293T cells; 6 μM CDDO overnight (16 hours),no remaining adherent cells
same,adherent cells remaining after treatment,293T cells; 8 μM CDDO overnight (16 hours),no remaining adherent cells
same,adherent colonies after post-treatment culture,"293T cells; repeat with 4 μM CDDO, five days of post-treatment culture in medium without CDDO",no adherent colonies were evident
